≈ marks a conversion by molar mass, not a printed value. Where two headings read alike, the source gives them in different places.
Experiments:
Format in all cases: cell-based
[1] = test system: Escherichia coli CFT073; assay: Minimum inhibitory concentration (MIC), visible growth; details: for MIC: Escherichia coli
Experimental: (§1) • 1. Using a sterile inoculating loop, transfer bacteria/Candida albicans from frozen stock culture and streak them on a fresh LA plate. • 2. Incubate the plate at 37° C. overnight (o/n) (18-24 h).
(§2) • 1. Prepare bacterial culture by adding 20 ml Mueller Hinton broth (*) to a 250-ml Erlenmeyer flask with sidearm. • 2. Using a sterile inoculating loop, pick approximately 10 colonies from the o/n bacterial culture and transfer bacteria to the flask. • 3. Incubate the E-flask with bacteria on a rotating shaker at 37° C. until OD590=0.40. This OD should equal an approximate bacterial count of 1×10^8 cfu/ml (**) • This is measured using a colorimeter (or spectrophotometer). Set reference and press R (=reference) first, then measure the bacterial culture by pressing T (=test). • 4. At OD590 0.40, serially dilute the bacterial suspension 1:10 000 in Mueller Hinton broth to obtain a bacterial target concentration of 1×10^4 cfu/ml. Determine the initial inoculation by serially diluting 0.1 ml in 0.9 ml blanks of sterile PBS and plating 0.1 ml aliquots to LA plates, preferably. • 5. Different concentrations of the tested compound are prepared in 0.6-0.8 ml of the final dilution of bacterial suspension and placed in 2-ml test tubes. • 6. Incubate test tubes in an orbital shaker incubator at 37° C. for 24 h.
(§3) • 7. Analyze visible growth, i.e. “Foggy” or “Clear”. MIC is being defined as the interval between the highest “Foggy” and the lowest “Clear” concentration of the compound.
(§4) Different concentrations of PDEA (Example 1) in Mueller Hinton medium were prepared. Bacteria were inoculated to a concentration of 20 000 CFU/ml and incubated at 37° C. for 24 hours. Minimum inhibitory concentrations (MICs) were determined by analyzing visible growth, i.e., readouts were “Clear” and “Foggy”.
(§5) Different concentrations of the quaternary ammonium PDEA (Example 2) in Mueller Hinton medium were prepared. Bacteria were inoculated to a concentration of 20 000 CFU/ml and incubated at 37° C. for 24 hours. Minimum inhibitory concentrations (MICs) were determined by analyzing visible growth, i.e., readouts were “Clear” and “Foggy”.
(§6) Different concentrations of this compound in Mueller Hinton medium were prepared. Bacteria were inoculated to a concentration of 20 000 CFU/ml and incubated at 37° C. for 24 hours. Minimum inhibitory concentrations (MICs) were determined by analyzing visible growth, i.e., readouts were “Clear” and “Foggy”.
(§7) Different concentrations of this compound were prepared in Mueller Hinton broth. Bacteria were inoculated to a concentration of 20 000 CFU/ml and incubated at 37° C. for 24 hours. Minimum inhibitory concentrations (MICs) were determined by analyzing visible growth, i.e., readouts were “Clear” and “Foggy”.

[2] = test system: Klebsiella pneumoniae AO15200; assay: as above; details: for MIC: Klebsiella pneumoniae
Experimental: as §1, §2, §3, §4, §5, §6, §7

[3] = test system: Staphylococcus epidermidis Se19 (Clinical Isolate, Jan Ingemar Falk); assay: as above; details: for MIC: Staphylococcus epidermidis
Experimental: as §1, §2, §3, §4, §5, §6, §7

[4] = test system: Enterococcus faecalis #28 (KI, Clinical Isolate); assay: as above; details: for MIC: Enterococcus faecalis
Experimental: as §1, §2, §3, §4, §5, §6, §7

[5] = test system: Pseudomonas aeruginosa PA02; assay: as above; details: for MIC: Pseudomonas aeruginosa
Experimental: as §1, §2, §3, §4, §5, §6, §7

[6] = test system: Enterococcus faecium #11 (KI, Clinical Isolate); assay: as above; details: for MIC: Enterococcus faecium
Experimental: as §1, §2, §3, §4, §5, §6, §7

[7] = test system: Staphylococcus aureus B5381; assay: as above
Experimental: as §1, §2, §3, §4, §5, §6, §7

[8] = test system: Candida albicans; assay: Minimum inhibitory concentration (MIC), visible growth, YPD broth; details: for MIC: Candida albicans
Experimental: as §1, §2, §3
(*) When testing Candida albicans, Yeast extract Peptone Dextrose (YPD) broth is being used.
(**) For Candida albicans it is equal to 1×10^7
Different concentrations of PDEA were also prepared in Yeast extract Peptone Dextrose (YPD) broth. Candida albicans were inoculated to a concentration of 20 000 CFU/ml and incubated at 37° C. for 24 hours. Readouts were “Clear” and “Foggy”.
Different concentrations of the quaternary ammonium PDEA (Example 2) were also prepared in Yeast extract Peptone Dextrose (YPD) broth. Candida albicans were inoculated to a concentration of 20 000 CFU/ml and incubated at 37° C. for 24 hours. Readouts were “Clear” and “Foggy”.
Different concentrations of the Para position-PDEA” is (S)-4-pyridylthio cysteamine were also prepared in Yeast extract Peptone Dextrose (YPD) broth. Candida albicans were inoculated to a concentration of 20 000 CFU/ml and incubated at 37° C. for 24 hours. Readouts were “Clear” and “Foggy”.
Different concentrations of “Carboxylic acid PDEA” is 3-(2-Pyridyldithio)propanoic acid (CAS: 68617-64-1) were also prepared in Yeast extract Peptone Dextrose (YPD) broth. Candida albicans were inoculated to a concentration of 20 000 CFU/ml and incubated at 37° C. for 24 hours. Readouts were “Clear” and “Foggy”.

[9] = Mueller Hinton, 20 000 CFU/ml, 37° C., 24 hours, read-out: MIC

With C[N+](C)(C)CCSSc1ccccn1 [Example 2, 2-(2-Pyridyldisulanyl)ethan-(trimethylammonium) chloride] the visible growth readout ([1]; 0.11 mM) was “Foggy”, the visible growth readout ([1]; 0.225 mM) was “Foggy” and the visible growth readout ([1]; 0.55 mM) was “Clear”. For the same compound, the visible growth readout ([1]; 1.125 mM) was “Clear”, the MIC ([1]; CFT073, 24 h) was 225 to 550 µM and the visible growth readout ([2]; 0.11 mM) was “Foggy”. For the same compound, the visible growth readout ([2]; 0.225 mM) was “Foggy”, the visible growth readout ([2]; 0.55 mM) was “Clear” and the visible growth readout ([2]; 1.125 mM) was “Clear”. For the same compound, the MIC ([2]; AO15200, 24 h) was 225 to 550 µM, the visible growth readout ([3]; 0.025 mM) was “Foggy” and the visible growth readout ([3]; 0.055 mM) was “Foggy”. For the same compound, the visible growth readout ([3]; 0.11 mM) was “Clear”, the visible growth readout ([3]; 0.225 mM) was “Clear” and the MIC ([3]; 24 h) was 55 to 110 µM. For the same compound, the visible growth readout ([4]; 0.11 mM) was “Foggy”, the visible growth readout ([4]; 0.225 mM) was “Clear” and the visible growth readout ([4]; 0.55 mM) was “Clear”. For the same compound, the visible growth readout ([4]; 1.125 mM) was “Clear”, the MIC ([4]; 24 h) was 110 to 225 µM and the visible growth readout ([5]; 0.11 mM) was “Foggy”. The visible growth readout ([5]; 0.225 mM) was “Foggy”, the visible growth readout ([5]; 0.55 mM) was “Foggy” and the visible growth readout ([5]; 1.125 mM) was “Clear”. The MIC ([5]; PA02, 24 h) was 550 to 1120 µM, the visible growth readout ([6]; 0.025 mM) was “Foggy” and the visible growth readout ([6]; 0.055 mM) was “Foggy”. For the same compound, the visible growth readout ([6]; 0.11 mM) was “Clear”, the visible growth readout ([6]; 0.225 mM) was “Clear” and the MIC ([6]; 24 h) was 55 to 110 µM. For the same compound, the visible growth readout ([7]; 0.11 mM) was “Foggy”, the visible growth readout ([7]; 0.225 mM) was “Foggy” and the visible growth readout ([7]; 0.55 mM) was “Foggy”. The visible growth readout ([7]; 1.125 mM) was “Clear”, the MIC ([7]; Staphylococcus aureus, B5381, 24 h) was 550 to 1120 µM and the visible growth readout ([8]; 0.11 mM) was “Foggy”. For the same compound, the visible growth readout ([8]; 0.225 mM) was “Foggy”, the visible growth readout ([8]; 0.55 mM) was “Clear” and the visible growth readout ([8]; 1.1 mM) was “Clear”. The visible growth readout ([8]; 2.2 mM) was “Clear”, the visible growth readout ([8]; 4.4 mM) was “Clear” and the MIC ([8]; 24 h) was 225 to 550 µM.
With O=C(O)CCSSc1ccccn1 [Example 4, 3-(2-Pyridyldithio)propanoic acid] the visible growth readout ([1]; 0.05 mM) was “Foggy”, the visible growth readout ([1]; 0.1 mM) was “Foggy” and the visible growth readout ([1]; 0.25 mM) was “Foggy”. The visible growth readout ([1]; 0.5 mM) was “Foggy”, the visible growth readout ([1]; 1 mM) was “Foggy” and the visible growth readout ([1]; 2 mM) was “Foggy”. For the same compound, the visible growth readout ([1]; 4 mM) was “Clear”, the MIC ([1]; CFT073, Mueller Hinton, 20 000 CFU/ml, 37° C., 24 hours, read-out: MIC) was 2000 to 4000 µM (≈ 431 to 861 µg/mL) and the visible growth readout ([2]; 0.05 mM) was “Foggy”. The visible growth readout ([2]; 0.1 mM) was “Foggy”, the visible growth readout ([2]; 0.25 mM) was “Foggy” and the visible growth readout ([2]; 0.5 mM) was “Foggy”. For the same compound, the visible growth readout ([2]; 0.8 mM (second series)) was “Foggy”, the visible growth readout ([2]; 1 mM) was “Foggy” and the visible growth readout ([2]; 2 mM) was “Foggy”. The visible growth readout ([2]; 3.2 mM (second series)) was “Foggy”, the visible growth readout ([2]; 4 mM) was “Foggy” and the visible growth readout ([2]; 6.4 mM (second series)) was “Clear”. For the same compound, the visible growth readout ([2]; 12.8 mM (second series)) was “Clear”, the visible growth readout ([2]; 0.1.6 mM (second series)) was “Foggy” and the MIC ([2]; AO15200, Mueller Hinton, 20 000 CFU/ml, 37° C., 24 hours, read-out: MIC) was 3200 to 6400 µM (≈ 689 to 1380 µg/mL). The visible growth readout ([3]; 0.05 mM) was “Foggy”, the visible growth readout ([3]; 0.1 mM) was “Foggy” and the visible growth readout ([3]; 0.25 mM) was “Clear”. The visible growth readout ([3]; 0.5 mM) was “Clear”, the visible growth readout ([3]; 1 mM) was “Clear” and the visible growth readout ([3]; 2 mM) was “Clear”. The visible growth readout ([3]; 4 mM) was “Clear”, the MIC [3, 9] was 100 to 250 µM (≈ 21.5 to 53.8 µg/mL) and the visible growth readout ([4]; 0.05 mM) was “Foggy”. The visible growth readout ([4]; 0.1 mM) was “Foggy”, the visible growth readout ([4]; 0.25 mM) was “Foggy” and the visible growth readout ([4]; 0.5 mM) was “Clear”. The visible growth readout ([4]; 1 mM) was “Clear”, the visible growth readout ([4]; 2 mM) was “Clear” and the visible growth readout ([4]; 4 mM) was “Clear”. The MIC [4, 9] was 250 to 500 µM (≈ 53.8 to 108 µg/mL), the visible growth readout ([5]; 0.05 mM) was “Foggy” and the visible growth readout ([5]; 0.1 mM) was “Foggy”. For the same compound, the visible growth readout ([5]; 0.25 mM) was “Foggy”, the visible growth readout ([5]; 0.5 mM) was “Foggy” and the visible growth readout ([5]; 0.8 mM (second series)) was “Foggy”. For the same compound, the visible growth readout ([5]; 1 mM) was “Foggy”, the visible growth readout ([5]; 2 mM) was “Foggy” and the visible growth readout ([5]; 3.2 mM (second series)) was “Foggy”. The visible growth readout ([5]; 4 mM) was “Foggy”, the visible growth readout ([5]; 6.4 mM (second series)) was “Foggy” and the visible growth readout ([5]; 12.8 mM (second series)) was “Clear”. The visible growth readout ([5]; 0.1.6 mM (second series)) was “Foggy”, the MIC ([5]; PA02, Mueller Hinton, 20 000 CFU/ml, 37° C., 24 hours, read-out: MIC) was 6400 to 12800 µM (≈ 1380 to 2760 µg/mL) and the visible growth readout ([6]; 0.05 mM) was “Foggy”. For the same compound, the visible growth readout ([6]; 0.1 mM) was “Foggy”, the visible growth readout ([6]; 0.25 mM) was “Clear” and the visible growth readout ([6]; 0.5 mM) was “Clear”. For the same compound, the visible growth readout ([6]; 1 mM) was “Clear”, the visible growth readout ([6]; 2 mM) was “Clear” and the visible growth readout ([6]; 4 mM) was “Clear”. For the same compound, the MIC [6, 9] was 100 to 250 µM (≈ 21.5 to 53.8 µg/mL), the visible growth readout ([7]; 0.05 mM) was “Foggy” and the visible growth readout ([7]; 0.1 mM) was “Foggy”. The visible growth readout ([7]; 0.25 mM) was “Foggy”, the visible growth readout ([7]; 0.5 mM) was “Foggy” and the visible growth readout ([7]; 1 mM) was “Clear”. The visible growth readout ([7]; 2 mM) was “Clear”, the visible growth readout ([7]; 4 mM) was “Clear” and the visible growth readout ([8]; 0.05 mM) was “Foggy”. The visible growth readout ([8]; 0.1 mM) was “Foggy”, the visible growth readout ([8]; 0.25 mM) was “Foggy” and the visible growth readout ([8]; 0.5 mM) was “Foggy”. For the same compound, the visible growth readout ([8]; 1 mM) was “Foggy”, the visible growth readout ([8]; 2 mM) was “Clear” and the visible growth readout ([8]; 4 mM) was “Clear”. It also gave an MIC ([8]; YPD broth, 20 000 CFU/ml, 37° C., 24 hours, read-out: MIC) of 1000 to 2000 µM (≈ 215 to 431 µg/mL).

Source: patent US20250339415A1, “DISULFIDE COMPOUNDS AS MEDICAMENTS” (CYTACOAT AB, priority 2021, published 2025)
